Test results as given in patent US11560391B2, “Sulfonylurea compounds as inhibitors of interleukin-1 activity” (Genentech, Inc., priority 2018, dated 2023).
Read-outs that look alike come from different tables or passages of the source.

Legend:
[1] = test system: PBMCs; assay: CTG (CellTiter-Glo) viability assay of compound-treated LPS and nigericin stimulated PBMCs; type: cell-based, human
Protocol: (§1) Human peripheral blood mononuclear cells (PBMCs), consisting of lymphocytes (T, B and NK cells), monocytes and dendritic cells, are freshly isolated from human peripheral blood from healthy donors. Cells are obtained through an IRB approved donor program by iXCells Biotechnologies where all the donors are tested for bacterial and viral infections. Cells are purified from peripheral blood using ficoll gradient centrifugation.
(§2) Fresh or cryopreserved PMBCs are seeded in V-bottom 96-well plate at 0.5-1×10^5 cells per well and incubated overnight at 37° C. with 5% CO2 in RPMI 1640 medium with GlutaMAX supplement, 4.5 g/L D-glucose, 10% Fetal Bovine Serum (FBS), […] Sodium Pyruvate, 1% Penicillin/Streptomycin, 10 mM HEPES and 0.05 mM of […]. Freshly isolated or cryopreserved KCs cells are seeded in flat-bottom 96-well plates at 0.6-1.5×10^5 cells/well and incubated overnight at 37° C., 5% CO2 in RPMI 1640 Medium with GlutaMAX supplement, FBS, 1% Penicillin/Streptomycin and 10 mM HEPES. The following day, the cells are primed with 100 ng/mL of lipopolysaccharides (LPS; Sigma Aldrich) in FBS-free RPMI 1640 for 3 h. After the priming step, the media is removed and PBMCs are pre-incubated with serial concentrations of test compounds (0.00017-10 uM) or vehicle (DMSO) for 30 min in FBS-free media prior to addition of the NLRP3 activator. Cells are then stimulated with 10 μM Nigericin (Sigma Aldrich; InvivoGen) for 1.5 h. Plates were centrifuged at 1,500 rpm for 3 minutes to pellet cells and supernatant was transferred into new plates for subsequent experiments.
Viability of compound treated cells is measured using CellTiter-Glo® assay (Promega, Madison, Wis.) that measures the ATP content of cells which is proportional to the number of live cells within a well. This is a counter-screen to establish that the reduction of IL-1β levels in LPS and nigericin stimulated and compound treated cells is not due to cytotoxicity, but rather through the inhibition of the inflammasome pathway. Compounds inhibiting NRLP3 inflammasome activation ultimately increase the viability of LPS and nigericin stimulated cells by blocking NLRP3 mediated pyroptosis that would otherwise lead to cell lysis.

[2] = biological target: T1, NLRP3 inflammasome (Homo sapiens, UniProt Q96P20); assay: NLRP3 inflammasome activation assay in LPS-primed, nigericin-stimulated PBMCs, IL-1β release; type: cell-based; details: 10 μM nigericin
T1 construct: freshly isolated from human peripheral blood from healthy donors; StemCells Technologies; host or cells: primary human PBMCs
T1 sequence (Q96P20 whole entry): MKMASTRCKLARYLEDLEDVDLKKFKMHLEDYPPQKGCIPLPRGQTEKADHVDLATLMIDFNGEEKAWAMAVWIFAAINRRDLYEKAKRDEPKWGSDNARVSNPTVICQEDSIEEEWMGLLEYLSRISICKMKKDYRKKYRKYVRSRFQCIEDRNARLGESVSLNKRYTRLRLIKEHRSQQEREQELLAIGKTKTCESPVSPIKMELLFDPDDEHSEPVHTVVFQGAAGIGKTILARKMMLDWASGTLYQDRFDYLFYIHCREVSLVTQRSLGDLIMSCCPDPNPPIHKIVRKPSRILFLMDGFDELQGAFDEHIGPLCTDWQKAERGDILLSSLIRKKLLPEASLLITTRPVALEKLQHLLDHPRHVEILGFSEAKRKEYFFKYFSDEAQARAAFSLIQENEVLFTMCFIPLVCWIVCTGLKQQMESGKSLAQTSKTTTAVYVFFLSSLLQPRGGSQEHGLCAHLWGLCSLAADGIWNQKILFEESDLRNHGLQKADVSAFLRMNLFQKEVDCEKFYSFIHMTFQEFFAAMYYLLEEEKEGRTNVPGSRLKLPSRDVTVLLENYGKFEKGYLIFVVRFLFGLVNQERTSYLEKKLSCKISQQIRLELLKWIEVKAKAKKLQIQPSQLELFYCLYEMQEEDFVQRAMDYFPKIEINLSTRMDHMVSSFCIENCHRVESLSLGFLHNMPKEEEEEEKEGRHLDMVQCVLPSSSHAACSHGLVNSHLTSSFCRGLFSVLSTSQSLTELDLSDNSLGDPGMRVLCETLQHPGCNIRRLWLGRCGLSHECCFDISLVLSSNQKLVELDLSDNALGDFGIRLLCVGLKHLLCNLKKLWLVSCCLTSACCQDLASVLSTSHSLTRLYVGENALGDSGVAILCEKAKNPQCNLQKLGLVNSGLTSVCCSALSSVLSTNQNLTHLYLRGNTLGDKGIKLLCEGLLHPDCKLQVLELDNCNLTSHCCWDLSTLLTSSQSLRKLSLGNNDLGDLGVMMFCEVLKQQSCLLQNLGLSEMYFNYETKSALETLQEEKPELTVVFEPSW
Protocol: Some of the following assays were used to determine the inhibitory activity of the compounds on the NLRP3 inflammasome using a common inflammasome activation stimuli-nigericin.
as §1, §2
For ELISA assays cells are seeded into 96-well plates. Post study, supernatants are removed and the levels of mature IL-1β, IL18 and TNFα (Quantikine ELISA, R&D systems) are measured in cell conditioned media by ELISA according to manufacturer's instructions.
Human frozen PBMCs were purchased from StemCells Technologies. Cells were rapidly thawed in 37° C. water bath and resuspended in fresh assay media consisting of RPMI 1640 Medium containing 1% sodium pyruvate, 10 mM HEPES, 2.5 g/L glucose and 55 μM 2-Mercaptoethanol. Cell density was adjusted to 8.1×10^5 cells/mL. Cells were primed by adding lipopolysaccharide (Invivogen Ultrapure lipopolysaccharide from E. coli, tlrl-3pelps) at a final concentration of 100 ng/mL in cell suspension. 37 μL of cell suspension with LPS was seeded per well of a 384 well plate and incubated for 3 hours at 37° C. and 5% CO2. After priming, PBMCs were preincubated with serially diluted test compounds with starting concentration of 40 μM followed by 2-fold dilution for a 20-point curve or vehicle (DMSO) for 30 min in assay media at 37° C. and 5% CO2. Cells were then stimulated with 10 μM nigericin (Invivogen, tlrl-nig-5) for 90 min at 37° C. and 5% CO2 to activate NLRP3 dependent inflammasome pathway and IL-1β release in cell culture supernatant. Cells were centrifuged at 1200 RPM for 1 min and 40 μL of supernatant was transferred into fresh plates and stored at −80° C. until IL-1β analysis.
16 μL of supernatant was added to white 384 well HTRF plates, followed by addition of 4 μL of HTRF cocktail in each well. Plates were quickly centrifuged, sealed and incubated overnight at room temperature. Next day, HTRF signal was read on a Pherastar and ratio of 665/620 was calculated based on manufacturer's protocol to obtain concentration of IL-1β in cell culture supernatant.

[3] = Homo sapiens, PBMC, read-out: PMBC CTG IC50
[4] = PBMC, LPS priming, read-out: PMBC IL-1β IC50
[5] = Homo sapiens, PBMC, LPS and nigericin stimulated cells, read-out: CTG pIC50 (converted)
[6] = LPS 100 ng/mL priming, read-out: IL-1B pIC50 (converted)
[7] = LPS and nigericin stimulated cells, read-out: CTG pIC50 (converted)

| SMILES | IC50 [2, 4] [µM] | IC50 [2, 6] [µM] | IC50 [1, 5] [nM] | also measured |
| --- | --- | --- | --- | --- |
| CC(C)c1ccnc(C(C)C)c1NC(=O)NS(=O)(=O)c1cnn2c1OCCC2 [Example 31, N-((2,4-diisopropylpyridin-3-yl)carbamoyl)-6,7-dihydro-5H-pyrazolo[5,1-b][1,3]oxazine-3-sulfonamide] | 4.38 |  |  | IC50 [1, 3]: 890 nM |
| O=C(NC1(c2ccccc2)CC1)NS(=O)(=O)c1cnn2c1OCCC2 [Example 11, N-((1-phenylcyclopropyl)carbamoyl)-6,7-dihydro-5H-pyrazolo[5,1-b][1,3]oxazine-3-sulfonamide] | > 10 |  |  | IC50 [1, 3]: > 10000 nM |
| CC(C)c1cc(Cl)nc(C(C)C)c1NC(=O)NS(=O)(=O)c1cnn2c1OCCC2 [Example 32, N-((6-chloro-2,4-diisopropylpyridin-3-yl)carbamoyl)-6,7-dihydro-5H-pyrazolo[5,1-b][1,3]oxazine-3-sulfonamide] | 0.59 |  |  | IC50 [1, 3]: 920 nM |
| O=C(NC1C2CC3CC(C2)C1C3)NS(=O)(=O)c1cnn2c1OCCC2 (stereo not drawn) |  | 1 to 10 | > 10000 |  |
| CC(C)c1cncc(C(C)C)c1NC(=O)NS(=O)(=O)c1cnn2c1OCCC2 [Example 28, N-((3,5-diisopropylpyridin-4-yl)carbamoyl)-6,7-dihydro-5H-pyrazolo[5,1-b][1,3]oxazine-3-sulfonamide] | 1.79 |  |  | IC50 [1, 3]: 69 nM |
| Cc1onc(-c2ccccc2)c1NC(=O)NS(=O)(=O)c1cnn2c1OCCC2 [drawing 373] |  | > 10 | > 10000 |  |
| CC(C)n1nc2c(c1NC(=O)NS(=O)(=O)c1cnn3c1OCCC3)CCC2 [Example 44, N-((2-isopropyl-2,4,5,6-tetrahydrocyclopenta[c]pyrazol-3-yl)carbamoyl)-6,7-dihydro-5H-pyrazolo[5,1-b][1,3]oxazine-3-sulfonamide] | 1.22 |  |  | IC50 [1, 3]: > 10000 nM |
| O=C(NC1C2CC3CC(C2)CC1C3)NS(=O)(=O)c1cnn2c1OCCC2 (stereo not drawn) [Example 3, N-(((1r,3r,5r,7r)-adamantan-2-yl)carbamoyl)-6,7-dihydro-5H-pyrazolo[5,1-b][1,3]oxazine-3-sulfonamide] | 2.08 |  |  | IC50 [1, 3]: > 10000 nM |
| CC(C)c1cc(C2CC2)nc(C(C)C)c1NC(=O)NS(=O)(=O)c1cnn2c1OCCC2 [Example 45, N-((6-cyclopropyl-2,4-diisopropylpyridin-3-yl)carbamoyl)-6,7-dihydro-5H-pyrazolo[5,1-b][1,3]oxazine-3-sulfonamide] | 0.91 |  |  | IC50 [1, 3]: 370 nM |
| COc1cc(C(C)C)c(NC(=O)NS(=O)(=O)c2cnn3c2OCC(CNC(C)=O)C3)c(C(C)C)n1 (stereo not drawn) |  | 1 to 10 | 1000 to 10000 |  |
| CC(C)c1cc(N(C)C)nc(C(C)C)c1NC(=O)NS(=O)(=O)c1cnn2c1OCCC2 [Example 51, Sodium N-((6-(dimethylamino)-2,4-diisopropylpyridin-3-yl)carbamoyl)-6,7-dihydro-5H-pyrazolo[5,1-b][1,3]oxazine-3-sulfonamide] | 2.07 |  |  | IC50 [1, 3]: 1120 nM |
| COc1cc(C(C)C)c(NC(=O)NS(=O)(=O)c2cnn3c2OC[C@@H](OC)C3)c(C(C)C)n1 [Example 37a, Sodium (S)—N-((2,4-diisopropyl-6-methoxypyridin-3-yl)carbamoyl)-6-methoxy-6,7-dihydro-5H-pyrazolo[5,1-b][1,3]oxazine-3-sulfonamide] | 0.55 |  |  | IC50 [1, 3]: 600 nM |
| Cc1cc(NC(=O)NS(=O)(=O)c2cnn3c2OCCC3)n(C(C)C)n1 [Example 43, N-((1-isopropyl-3-methyl-1H-pyrazol-5-yl)carbamoyl)-6,7-dihydro-5H-pyrazolo[5,1-b][1,3]oxazine-3-sulfonamide] | > 10 |  |  |  |
| CC1CCCC(C)N1NC(=O)NS(=O)(=O)c1cnn2c1OCCC2 (mixture of isomers) [Example 7, N-((2,6-dimethylpiperidin-1-yl)carbamoyl)-6,7-dihydro-5H-pyrazolo[5,1-b][1,3]oxazine-3-sulfonamide] | > 10 |  |  |  |
| COc1cc(OC)nc(NC(=O)NS(=O)(=O)c2cnn3c2OCCC3)n1 [drawing 383] |  |  |  | IC50 ([2]; IL-1B pIC50 (μM), LPS 100 ng/mL priming): > 10 µM |

The next lines start with results.

| IC50 [2, 4] [µM] | IC50 [2, 6] [µM] | SMILES | IC50 [1, 5] [nM] | also measured |
| --- | --- | --- | --- | --- |
|  | 0.1 to 1 | CC(C)c1cncc(C(C)C)c1NC(=O)NS(=O)(=O)c1cnn2c1OCCC2 [drawing 393] | 100 to 1000 |  |
|  | 1 to 10 | CO[C@@H]1COc2c(S(=O)(=O)NC(=O)Nc3c(C(C)C)nn(C)c3C(C)C)cnn2C1 [drawing 405] | 100 to 1000 |  |
|  | 0.1 to 1 | CN[C@@H]1COc2c(S(=O)(=O)NC(=O)Nc3c(C(C)C)cc(OC)nc3C(C)C)cnn2C1 [drawing 408] | < 100 |  |
|  | 1 to 10 | CC(C)c1nn(C(C)C)c(C(C)C)c1NC(=O)NS(=O)(=O)c1cnn2c1OCCC2 [drawing 400] | 1000 to 10000 |  |
|  | 0.1 to 1 | CC(C)c1cc(Cl)nc(C(C)C)c1NC(=O)NS(=O)(=O)c1cnn2c1OCCC2 [drawing 399] | 100 to 1000 |  |
|  | < 0.1 | COc1cc(C(C)C)c(NC(=O)NS(=O)(=O)c2cnn3c2OC[C@@H](N2CC(OC)C2)C3)c(C(C)C)n1 [drawing 409] | 100 to 1000 |  |
|  | 0.1 to 1 | COc1cc(C(C)C)c(NC(=O)NS(=O)(=O)c2cnn3c2OCCC3)c(C(C)C)n1 [drawing 396] | 100 to 1000 |  |
|  | 1 to 10 | CC(C)n1nc2c(c1NC(=O)NS(=O)(=O)c1cnn3c1OCCC3)CCC2 [drawing 411] | > 10000 |  |
|  | 0.1 to 1 | COc1cc(C(C)C)c(NC(=O)NS(=O)(=O)c2cnn3c2OC[C@@H](OC)C3)c(C(C)C)n1 [drawing 404] | 100 to 1000 |  |
|  | 1 to 10 | CC(C)c1ccnc(C(C)C)c1NC(=O)NS(=O)(=O)c1cnn2c1OCCC2 [drawing 398] |  | IC50 [1, 7]: 100 to 1000 nM |
|  | 1 to 10 | CC(C)c1cncc(C(C)C)c1NC(=O)NS(=O)(=O)c1cnn2c1OCCC2 [drawing 394] |  | IC50 [1, 7]: < 100 nM |
|  | 0.1 to 1 | CC(C)c1cc(C2CC2)nc(C(C)C)c1NC(=O)NS(=O)(=O)c1cnn2c1OCCC2 [drawing 412] | 100 to 1000 |  |
|  | 0.1 to 1 | CC(C)c1nn(CC2CC2)c(C(C)C)c1NC(=O)NS(=O)(=O)c1cnn2c1OCCC2 [drawing 402] | 100 to 1000 |  |
|  | 1 to 10 | CC(C)c1cc(N(C)C)nc(C(C)C)c1NC(=O)NS(=O)(=O)c1cnn2c1OCCC2 [drawing 418] | 100 to 1000 |  |
|  | 1 to 10 | CC(C)c1cc(C#N)nc(C(C)C)c1NC(=O)NS(=O)(=O)c1cnn2c1OCCC2 [drawing 416] | 100 to 1000 |  |
|  | > 10 | O=C(NC1(c2ccccc2)CC1)NS(=O)(=O)c1cnn2c1OCCC2 [drawing 376] | > 10000 |  |
|  | 1 to 10 | CCOc1cc(C(C)C)c(NC(=O)NS(=O)(=O)c2cnn3c2OCCC3)c(C(C)C)n1 [drawing 417] | 1000 to 10000 |  |
|  | 1 to 10 | CCn1nc(C(C)C)c(NC(=O)NS(=O)(=O)c2cnn3c2OC[C@@H](OC)C3)c1C(C)C [drawing 406] | 100 to 1000 |  |
|  | 1 to 10 | CC(C)c1ccnc(C(C)C)c1NC(=O)NS(=O)(=O)c1cnn2c1OCCC2 [drawing 397] |  | IC50 [1, 7]: 1000 to 10000 nM |
|  | > 10 | O=C(Nc1c2c(n3c1CCC3)CCCC2=O)NS(=O)(=O)c1cnn2c1OCCC2 [drawing 395] |  |  |
